We go through twelve molecules from article PMC6300282, “Sulphamethazine derivatives as immunomodulating agents: New therapeutic strategies for inflammatory diseases” (PLoS ONE, 2018).

≈ marks a conversion by molar mass, not a printed value.

The test system of data set [1] is isolated polymorphonuclear neutrophils (PMNs). Briefly: Oxidative burst assay (luminol-enhanced chemiluminescence), isolated PMNs. Conditions: Polymorphonuclear neutrophil, isolated human PMNs, zymosan, three doses 1, 10, 100 μg/mL, mean ± SD of three, read-out: Oxidative Burst Inhibition (IC50) PMNs. It is filed as cell-based. An excerpt:
Heparinized blood was obtained by vein puncture aseptically from healthy volunteers. The PMNs were isolated by ficoll-Hypaque density gradient method. The cells were isolated after centrifugation from the tube base. Cells were washed twice and suspended in Hank’s Balance salt solution (HBSS^--) (Ca^2+ and Mg^2+ free), RBCs were lysed using hypotonic solution. Cells were adjusted to their required concentration (1x10^6 cells/mL) using HBSS^++containing Ca^2+ and Mg^2+.
Luminol-enhanced chemiluminescence assay was performed, as described by Helfandet al., 1982 [17], with some modifications. Briefly 25 μL of diluted whole blood in HBSS^++ (Hanks Balanced Salt Solution, containing calcium chloride and magnesium chloride) [Sigma, St. Louis, USA] was incubated with 25 μL of three different concentrations of compounds (1, 10, and 100 μg/mL), each in triplicate. Control wells received HBSS^++ and cells, but no compounds. Test was performed in white half area 96-well plates [Costar, NY, USA], which was incubated at 37 °C for 15 minutes in the thermostat chamber of luminometer [Labsystems, Helsinki, Finland]. After incubation, 25 μL of serum opsonized zymosan (SOZ) [Fluka, Buchs, Switzerland] and 25 μL of intracellular reactive oxygen species detecting probe, luminol [Research Organics, Cleveland, OH, USA] were added into each well, except blank wells (containing only HBSS^++). The level of the ROS was recorded in luminometer in term of relative light units (RLU).

Data set [2] has as its system TNF-α production from THP-1 human monocytic leukemia cell line. Nature of the data set: TNF-α production (ELISA), LPS stimulated THP-1 cells. Conditions: Homo sapiens; PMA-differentiated THP-1 cells, 50 ng/mL LPS, 4 hours; three doses 1, 10, 100 μg/mL; mean ± SD of three; read-out: TNF-α Inhibition (IC50). It is filed as cell-based. An excerpt:
RPMI-1640 (R8758, Sigma Aldrich, St. Louis, USA); L-glutamine (25030081, Gibco, California, USA); D-glucose (G8270, Sigma Aldrich, St. Louis, USA); 2-mercaptoethanol (190242, MP Biomedicals, lllkirch, France); sodium pyruvate (11360–070, Gibco, California, USA); FBS (A11-104, PAA Laboratories, Pasching, Austria); HEPES (H3375, Sigma Aldrich, St. Louis, USA); PMA (151864, MP Biomedicals, lllkirch, France); lipopolysaccharide B of E. coli 0111:B4 (LPS) (3922–25, DIFCO Laboratories, USA); 24-well tissue culture plates (CLS3524, Corning, Dublin, USA); Flat bottom 96-well tissue culture plates (CLS3300, Corning, New York, USA). BSA (151429, MP Biomedicals, lllkirch, France); PBS tablets (41620016–4, Bioworld, Dublin, Ireland); Tween 20 (822184, Merck, Damstadt, Germany); Human TNF-α DuoSet ELISA Kit (DY210, R&D Systems, Minneapolis, USA); Human IL-1β DuoSet ELISA Kit (DY201, R&D Systems, Minneapolis, USA); and Human IL-2 DuoSet ELISA Kit (DY202, R&D Systems, Minneapolis, USA); ELISA plate sealers (DY992, R&D Systems, Minneapolis, USA); Clear flat bottom 96-well microplates (DY990, R&D Systems, Minneapolis, USA). Human monocytic leukemia cells THP-1 were obtained from (European Collection of Cell Cultures, UK). The cells were maintained in RPMI-1640 containing 5.5 mmol/L glucose (BioM Laboratories, Chemical Division, Malaysia), 50 μmol/L mercaptoethanol (Merck Damstadt, Germany), 10% FBS (fetal bovine serum), 2 mmol/L; L-glutamine (PAA Laboratories, GmbH, Pasching, Austria). Cells were grown in 75 cc flasks, harvested and 2.5×10^5 cells/mL was then plated in 24-well tissue culture plates. 20 ng/mL of phorbol-12-myristate-13-acetate (PMA), (SERVA, Heidelberg, Germany) was added followed by incubation for 24 hours at 37 °C in 5% CO2to convert them into macrophage like cell. Cells were then stimulated with E. coli lipopolysacchride B, (DIFCO Laboratories, michigon, USA) at a final concentration of 50 ng/mL and treated with compounds at three different concentration (1, 10 and 100 μg/mL) and then incubated for 4 hours at 37 °C in 5% CO2. The supernatants collected were analyzed for the level of TNF -α using the human TNF-α Duo Set ELISA (R&D Systems, Minneapolis, USA), and according to manufacturer’s instructions.

The next data set in a line: MTT cytotoxicity assay. Conditions: mouse; for IC50: MTT, 48 hours, read-out: Cytotoxicity NIH-3T3 cell line (IC50). The format is cell-based, mouse. Here is the method:
The cytotoxicity was recorded as concentration causing 50% growth inhibition (IC50).

For data set [3], the system named is Escherichia coli (ATCC 12022). Briefly: Microplate Alamar Blue Assay, Escherichia coli. Conditions: ATCC12022, 200 μg/mL, NI = No inhibition, read-out: Percentage (%) Inhibition, Escherichia coli. It is filed as cell-based.

Regarding `Cc1cc(C)nc(NS(=O)(=O)c2ccc(NC(=O)C(Br)CBr)cc2)n1` (stereo not drawn) [Compound 3, 2,3-Dibromo-N-(4-(N-(4,6-dimethylpyrimidin-2-yl)sulfamoyl)phenyl)propanamide], the results for the IC50 (in data set [1]; in data set [2]; in “MTT cytotoxicity assay”) were 3.6 ± 0.05 µg/mL, under 1 µg/mL and over 30 µM, respectively. The inhibition (as a rule, how much of the control response was suppressed) at 200 µg/mL in data set [3] is under 0%.

With `Cc1cc(C)nc(NS(=O)(=O)c2ccc(NC(=O)c3cccc(CCl)c3)cc2)n1` [Compound 4, 3-(Chloromethyl)-N-(4-(N-(4,6-dimethylpyrimidin-2-yl)sulfamoyl)phenyl)benzamide], the IC50 (as a rule, the point on the concentration scale where inhibition reaches its midpoint) in data set [1] was 6.1 ± 0.08 µg/mL; in data set [2], under 1 µg/mL; in the data set “MTT cytotoxicity assay” it was over 30 µM. The inhibition at 200 µg/mL in data set [3] was under 0%.

In the case of `Cc1cc(C)nc(NS(=O)(=O)c2ccc(NC(=O)c3ccc(CCl)cc3)cc2)n1` [Compound 5, 4-(Chloromethyl)-N-(4-(N-(4,6-dimethylpyrimidin-2-yl)sulfamoyl)phenyl)benzamide], the IC50 in data set [1] is 3 ± 0.06 µg/mL; in data set [2] it was under 1 µg/mL; in the data set “MTT cytotoxicity assay”, over 30 µM. Besides, in data set [3], the inhibition at 200 µg/mL is under 0%.

With `Cc1cc(C)nc(NS(=O)(=O)c2ccc(NC(=O)c3cc(C(F)(F)F)cc(C(F)(F)F)c3)cc2)n1` [Compound 6, N-(4-(N-(4,6-dimethylpyrimidin-2-yl)sulfamoyl)phenyl)-3,5-bis(trifluoromethyl)benzamide], the IC50 in data set [1] is 3.4 ± 0.1 µg/mL; in data set [2], under 1 µg/mL; in “MTT cytotoxicity assay”, over 30 µM. Further, the inhibition at 200 µg/mL in data set [3] is under 0%.

Take `Cc1cc(C)nc(NS(=O)(=O)c2ccc(NC(=O)c3cc(F)cc(F)c3)cc2)n1` [Compound 7, N-(4-(N-(4,6-dimethylpyrimidin-2-yl)sulfamoyl)phenyl)-3,5-difluorobenzamide]: the IC50 in data set [1] was 2.9 ± 0.3 µg/mL; in data set [2], 38.9 ± 0.7 µg/mL (≈ 93 µM); in “MTT cytotoxicity assay”, over 30 µM. In data set [3], the inhibition at 200 µg/mL was under 0%.

On to `Cc1cc(C)nc(NS(=O)(=O)c2ccc(NC(=O)c3cc(F)cc(C(F)(F)F)c3)cc2)n1` [Compound 8, N-(4-(N-(4,6-dimethylpyrimidin-2-yl)sulfamoyl)phenyl)-3-fluoro-5-(trifluoromethyl)benzamide], for which the IC50 is 2.4 ± 0.07 µg/mL in data set [1], 9.5 ± 0.4 µg/mL (≈ 20.3 µM) in data set [2] and over 30 µM in “MTT cytotoxicity assay”. For the same molecule, in data set [3], the inhibition at 200 µg/mL was under 0%.

For the molecule `Cc1cc(C)nc(NS(=O)(=O)c2ccc(NC(=O)c3ccc(C(F)(F)F)c(F)c3)cc2)n1` [Compound 9, N-(4-(N-(4,6-dimethylpyrimidin-2-yl)sulfamoyl)phenyl)-3-fluoro-4-(trifluoromethyl)benzamide], the IC50 in data set [1] is 2.8 ± 0.05 µg/mL; in data set [2], 2.1 ± 0.2 µg/mL (≈ 4.48 µM); in the data set “MTT cytotoxicity assay” it was over 30 µM. Also, in data set [3], the inhibition at 200 µg/mL is under 0%.

As for `Cc1cc(C)nc(NS(=O)(=O)c2ccc(NC(=O)c3ccc(F)c(C(F)(F)F)c3)cc2)n1` [Compound 10, N-(4-(N-(4,6-dimethylpyrimidin-2-yl)sulfamoyl)phenyl)-4-fluoro-3-(trifluoromethyl)benzamide], the IC50 in data set [1] is 3.4 ± 0.4 µg/mL; in data set [2], 34.5 ± 4.1 µg/mL (≈ 73.6 µM); in “MTT cytotoxicity assay” it was over 30 µM. For the same molecule, in data set [3], the inhibition at 200 µg/mL is under 0%.

With `Cc1cc(C)nc(NS(=O)(=O)c2ccc(NC(=O)C(C)Cl)cc2)n1` (stereo not drawn) [Compound 11, 2-Chloro-N-(4-(N-(4,6-dimethylpyrimidin-2-yl)sulfamoyl)phenyl)propanamide], the IC50 in data set [1] was 6.2 ± 0.13 µg/mL; in data set [2], over 100 µg/mL; in “MTT cytotoxicity assay”, over 30 µM. Further, the inhibition at 200 µg/mL in data set [3] was 3.93%.

Turning to `Cc1cc(C)nc(NS(=O)(=O)c2ccc(NC(=O)c3ccc(F)cc3)cc2)n1` [Compound 12, N-(4-(N-(4,6-dimethylpyrimidin-2-yl)sulfamoyl)phenyl)-4-fluorobenzamide], the IC50 in data set [1] was 3.3 ± 0.05 µg/mL; in data set [2], 9.9 ± 0.2 µg/mL (≈ 24.7 µM); in the data set “MTT cytotoxicity assay”, over 30 µM. In data set [3], the inhibition at 200 µg/mL was under 0%.

With `Cc1cc(C)nc(NS(=O)(=O)c2ccc(NC(=O)c3cccc([N+](=O)[O-])c3)cc2)n1` [Compound 13, N-(4-(N-(4,6-dimethylpyrimidin-2-yl)sulfamoyl)phenyl)-3-nitrobenzamide], the IC50 in data set [1] is 4.9 ± 0.2 µg/mL; in data set [2], 19.5 ± 1 µg/mL (≈ 45.6 µM); in the data set “MTT cytotoxicity assay”, over 30 µM. Further, the inhibition at 200 µg/mL in data set [3] was under 0%.

Consider `Cc1cc(C)nc(NS(=O)(=O)c2ccc(N)cc2)n1` [compound 1, Sulfamethazine, reference compound], for which the IC50 in data set [1] was 5.2 ± 0.05 µg/mL; in data set [2], over 100 µg/mL. This molecule also had an IC50 at 48 h in “MTT cytotoxicity assay” of over 30 µM. Further, the inhibition at 200 µg/mL in data set [3] was under 0%.
